Measured values from ChEMBL document CHEMBL5620362 (Eur J Med Chem, 2023).
The source made the active and inactive calls. No cut-off for these calls is given here.

Experiments:
[1] = target: T1, Nuclear receptor ROR-gamma (Homo sapiens, UniProt P51449); experiment: Binding affinity to CM5 chip-immobilized recombinant ROR-gamma LBD (unknown origin) assessed as dissociation constant by SPR analysis
T1 sequence (P51449 whole entry): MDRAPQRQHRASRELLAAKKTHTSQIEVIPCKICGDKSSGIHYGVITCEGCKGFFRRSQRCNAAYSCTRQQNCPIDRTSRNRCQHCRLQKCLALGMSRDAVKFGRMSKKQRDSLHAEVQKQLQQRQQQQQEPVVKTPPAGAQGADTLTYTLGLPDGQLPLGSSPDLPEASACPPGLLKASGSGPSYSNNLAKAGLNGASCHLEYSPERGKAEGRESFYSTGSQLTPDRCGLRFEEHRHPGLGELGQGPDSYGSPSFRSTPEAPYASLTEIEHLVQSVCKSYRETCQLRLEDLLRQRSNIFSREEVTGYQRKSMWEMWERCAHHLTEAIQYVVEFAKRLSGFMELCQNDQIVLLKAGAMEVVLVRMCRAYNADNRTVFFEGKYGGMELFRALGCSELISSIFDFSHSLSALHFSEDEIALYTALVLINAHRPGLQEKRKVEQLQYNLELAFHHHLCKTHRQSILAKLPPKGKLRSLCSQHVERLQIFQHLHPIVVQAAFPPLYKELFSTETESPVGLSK

[2] = tested on: HPAF-II; experiment: Antitumor activity against human HPAF-II cells measured after 72 hrs; format: functional, cell-based
[3] = tested on: HPAF-II; experiment: Induction of apoptosis in human HPAF-II cells assessed as late apoptotic cells at 10 uM incubated for 48 hrs by Annexin V-FITC/PI staining based flow cytometry (reference value: 1.28 %); format: functional
[4] = tested on: HPAF-II; experiment: Induction of apoptosis in human HPAF-II cells assessed as early apoptotic cells at 1 uM incubated for 48 hrs by Annexin V-FITC/PI staining based flow cytometry (reference value: 0.90 %); format: functional
[5] = tested on: HPAF-II; experiment: Induction of apoptosis in human HPAF-II cells assessed as necrotic cells at 1 uM incubated for 48 hrs by Annexin V-FITC/PI staining based flow cytometry (reference value: 8.09 %); format: functional
[6] = tested on: HPAF-II; experiment: Induction of apoptosis in human HPAF-II cells assessed as viable cells at 0.1 uM incubated for 48 hrs by Annexin V-FITC/PI staining based flow cytometry (reference value: 89.73 %); format: functional; conditions: read-out: Activity
[7] = tested on: HPAF-II; experiment: Induction of apoptosis in human HPAF-II cells assessed as necrotic cells at 0.01 uM incubated for 48 hrs by Annexin V-FITC/PI staining based flow cytometry (reference value: 8.09 %); format: functional
[8] = tested on: NCI-H23; experiment: Induction of apoptosis in human NCI-H23 cells assessed as late apoptotic cells at 10 uM incubated for 48 hrs by Annexin V-FITC/PI staining based flow cytometry (reference value: 2.89 %); format: functional
[9] = tested on: NCI-H23; experiment: Induction of apoptosis in human NCI-H23 cells assessed as viable cells at 0.1 uM incubated for 48 hrs by Annexin V-FITC/PI staining based flow cytometry (reference value: 92.16 %); format: functional; conditions: read-out: Activity
[10] = tested on: NCI-H23; experiment: Induction of apoptosis in human NCI-H23 cells assessed as early apoptotic cells at 0.1 uM incubated for 48 hrs by Annexin V-FITC/PI staining based flow cytometry (reference value: 4.17 %); format: functional
[11] = tested on: NCI-H23; experiment: Induction of apoptosis in human NCI-H23 cells assessed as late apoptotic cells at 0.1 uM incubated for 48 hrs by Annexin V-FITC/PI staining based flow cytometry (reference value: 2.89 %); format: functional
[12] = tested on: NCI-H23; experiment: Induction of apoptosis in human NCI-H23 cells assessed as viable cells at 0.01 uM incubated for 48 hrs by Annexin V-FITC/PI staining based flow cytometry (reference value: 92.16 %); format: functional; conditions: read-out: Activity
[13] = tested on: NCI-H23; experiment: Induction of apoptosis in human NCI-H23 cells assessed as early apoptotic cells at 0.01 uM incubated for 48 hrs by Annexin V-FITC/PI staining based flow cytometry (reference value: 4.17 %); format: functional
[14] = tested on: NCI-H23; experiment: Induction of apoptosis in human NCI-H23 cells assessed as necrotic cells at 0.01 uM incubated for 48 hrs by Annexin V-FITC/PI staining based flow cytometry (reference value: 0.78 %); format: functional
[15] = tested on: EOL1; experiment: Anticancer activity against human EOL1 cells incubated for 72 hrs; format: functional, cell-based
[16] = tested on: A549; experiment: Anticancer activity against human A549 cells incubated for 72 hrs; format: functional, cell-based
[17] = tested on: NCI-H358; experiment: Anticancer activity against human NCI-H358 cells incubated for 72 hrs; format: functional, cell-based
[18] = tested on: SW1573; experiment: Anticancer activity against human SW1573 cells incubated for 72 hrs; format: functional, cell-based
[19] = tested on: HPAF-II; experiment: Anticancer activity against human HPAF-II cells incubated for 72 hrs; format: functional, cell-based
[20] = tested on: HPAF-II; experiment: Induction of apoptosis in human HPAF-II cells assessed as reduction in MCL-1 level at 0.1 to 1 uM incubated for 48 hrs by Western blot analysis; format: functional, cell-based; conditions: dose 0.1-1 µM
[21] = tested on: HPAF-II; experiment: Downregulation of phosphorylated AKT expression in human HPAF-II cells at 0.1 to 1 uM incubated for 48 hrs by Western blot analysis; format: functional, cell-based; conditions: dose 0.1-1 µM
[22] = tested on: MIA PaCa-2; experiment: Cytotoxicity against human MIA PaCa-2 cells harboring siROR-gamma assessed as decrease in cell viability at 0.1 uM incubated for 72 hrs by SRB assay; format: functional, cell-based
[23] = tested on: HPAF-II; experiment: Inhibition of colony formation in human HPAF-II cells harboring siROR-gamma 0.1 uM incubated for 6 to 7 days by crystal violet staining based analysis; format: functional, cell-based; conditions: time 6-7 day
[24] = tested on: HPAF-II; experiment: Downregulation of AKT phosphorylation level in human HPAF-II cells harboring siROR-gamma at 0.1 uM by Western blot analysis; format: functional, cell-based
[25] = tested on: HPAF-II; experiment: Downregulation of ERK phosphorylation level in human HPAF-II cells harboring siROR-gamma at 0.1 uM by Western blot analysis; format: functional, cell-based
[26] = Half life in ICR mouse at 3 mg/kg, iv; format: ADME, organism-based; conditions: in vivo
[27] = Volume of distribution at steady state in ICR mouse at 3 mg/kg, iv; format: ADME, organism-based; conditions: in vivo, read-out: Vdss
[28] = Cmax in ICR mouse at 10 mg/kg, po; format: ADME, organism-based; conditions: in vivo
[29] = AUClast in ICR mouse at 10 mg/kg, po; format: ADME, organism-based; conditions: in vivo
[30] = AUC (infinity) in ICR mouse at 10 mg/kg, po; format: ADME, organism-based; conditions: in vivo
[31] = Oral bioavailability in ICR mouse at 10 mg/kg; format: ADME, organism-based; conditions: in vivo
[32] = Toxicity in nude Balb/cA mouse xenografted with human HPAF-II cells assessed as body weight loss at 90 to 180 mg/kg, po qd measured for 12 days; format: organism-based; conditions: in vivo, 288 h, dose 90-180 mg/kg, time 12 day
[33] = Toxicity in nude Balb/cA mouse xenografted with human HPAF-II cells assessed as redness at injection site at 15 mg/kg, ip qd measured for 12 days; format: organism-based; conditions: in vivo, 288 h, time 12 day
[34] = Toxicity in nude Balb/cA mouse xenografted with human HPAF-II cells assessed as swelling at injection site at 15 mg/kg, ip qd measured for 12 days; format: organism-based; conditions: in vivo, 288 h, time 12 day
[35] = Toxicity in nude Balb/cA mouse xenografted with human HPAF-II cells assessed as body weight loss at 15 mg/kg, ip qd measured for 12 days; format: organism-based; conditions: in vivo, 288 h, time 12 day

## C=C(C)[C@@H]1CC[C@]2(C(=O)NCCCN(C)C)CC[C@]3(C)[C@H](CC[C@@H]4[C@@]5(C)CC[C@H](O)C(C)(C)[C@@H]5CC[C@]43C)[C@@H]12
[1]
  Kd: 180 nM
[2]
  IC50: 90 nM
[3]
  Activity: 42.77%
[4]
  Activity: 39.49%
[5]
  Activity: 2.06%
[6]
  viability at 0.1 µM: 59.3%
[7]
  Activity: 7.52%
[8]
  Activity: 28.83%
[9]
  viability at 0.1 µM: 79.5%
[10]
  Activity: 3.45%
[11]
  Activity: 12.32%
[12]
  viability at 0.01 µM: 86.3%
[13]
  Activity: 4.06%
[14]
  Activity: 2.81%
[15]
  Activity: Active
[16]
  Activity: Active
[17]
  Activity: Active
[18]
  Activity: Active
[19]
  Activity: Active
[20]
  Activity: Active
[21]
  Activity: Active
[22]
  Activity: inactive
[23]
  inhibition: inactive
[24]
  Activity: Active
[25]
  Activity: Active
[26]
  half-life: 4.5 h
[27]
  Vd: 5.21 L/kg
[28]
  Cmax: 114 ng/mL
[29]
  AUC(0-t): 1670 ng·h/mL
[30]
  AUC(0-inf): 2050 ng·h/mL
[31]
  bioavailability: 16.8%
[32]
  Activity: Non-Toxic
[33]
  Activity: Toxic
[34]
  Activity: Toxic
[35]
  Activity: 19%
